Bases are written 5' to 3'; sugars and linkages follow in the same order, as letters with counts (s phosphorothioate, o phosphodiester; PS: all linkages phosphorothioate). The collection does not say whether C is 5-methylated. l = locked nucleic acid (LNA); d = 2'-deoxy (DNA)

The target of this series is Tau. As to the kind of experiment: rat primary cortical neurons, FLIPR, 25 uM ASO.
Regarding “TGCAAGAGTCACTGCACTGC (sugars l3 d14 l3, PS)”, the calcium oscillation score was 23.8 % of control. As for “TTCTTCCTTTGTAATTCC (sugars l3 d13 l2, PS)”, the calcium oscillation score is 39.6 % of control. Consider “ACCCATCAATTTGGAAAGAT (sugars l3 d14 l3, PS)”, for which the calcium oscillation score was 72.6 % of control. The result for “GATGGATGTTGCCTAATGAG (sugars l3 d14 l3, PS)” reads 0 % of control; that for “TCCCAGCGTGATCTTCCATC (sugars ldlllddddddddddlldll, PS)”, 74.5 % of control; that for “CAGTTACCATCATACAT (sugars l3 d10 l4, PS)”, 89 % of control. In the case of CACAAGTCCTTACAAA (sugars l3 d10 l3, PS), the calcium oscillation score was 194 % of control. Regarding TGTGATGCAGGAGTT (sugars l3 d9 l3, PS), the calcium oscillation score is 70.5 % of control. For the sequence “AACCACTCTAACATCTTA (sugars l4 d11 l3, PS)”, the calcium oscillation score was 86.8 % of control. On to “TTCCACTACAAGCTCCA (sugars l3 d12 l2, PS)”, for which the calcium oscillation score was 53.9 % of control. With “TCCCGTCTTTGCTTTTACTG (sugars l3 d14 l3, PS)”, the calcium oscillation score is 3.7 % of control. Turning to AATAGCAAACAGGATA (sugars l3 d10 l3, PS), the calcium oscillation score was 82.4 % of control.

As to “ATACAGTTGGCCCTACCATA (sugars l3 d14 l3, PS)”, the calcium oscillation score was 30.9 % of control. For CCTTTGAAAGTCCTTT (sugars l2 d12 l2, PS), the calcium oscillation score is 96.4 % of control. Take CTTAATTTCACCCTC (sugars l3 d9 l3, PS): the calcium oscillation score was 122 % of control.

Take “CAGCTTGTGGGTTTCAATCT (sugars l3 d14 l3, PS)”: the calcium oscillation score is 0 % of control.

Turning to ATGATTGTGGGCTTAG (sugars l3 d10 l3, PS), the calcium oscillation score was 24.4 % of control. The result for AACATCATGTCACACA (sugars l4 d8 l4, PS) reads 56.3 % of control; that for “CAAACAATCCATTTATATT (sugars l4 d11 l4, PS)”, 69.3 % of control. For the sequence CCATGTCGATGCTGCC (sugars l3 d10 l3, PS), the calcium oscillation score is 55.1 % of control. With “ATCCAAGTCAATGCCTGGCT (sugars l3 d14 l3, PS)”, the calcium oscillation score is 34.2 % of control. In the case of “GGTCAACTGGTTTGTAGACT (sugars l3 d14 l3, PS)”, the calcium oscillation score was 6.9 % of control. The same measure for “CCAGGGACCCAATCTTCGAC (sugars l3 d14 l3, PS)”: 9.04 % of control. For “TAGCCCTAAAGTCCCAGGTC (sugars l3 d14 l3, PS)”, the calcium oscillation score was 54 % of control.

As to TGGACGTTGCTAAGAT (sugars l3 d10 l3, PS), the calcium oscillation score was 0 % of control. For the sequence ATGTCGATGCTGCCGG (sugars l3 d10 l3, PS), the calcium oscillation score was 0 % of control. In the case of ATTTCCAAATTCACTT (sugars l3 d10 l3, PS), the calcium oscillation score was 111 % of control. For GAACTGCGAGGAGCAG (sugars l3 d10 l3, PS), the calcium oscillation score was 85.2 % of control. For the sequence TTCCAGTCCCGTCTTT (sugars l3 d10 l3, PS), the calcium oscillation score is 73.1 % of control. In the case of “CAGATTTTACTTCCACCT (sugars l2 d14 l2, PS)”, the calcium oscillation score is 44.7 % of control. As for “ATTGCAACTTTAACTCC (sugars l3 d10 l4, PS)”, the calcium oscillation score is 62.9 % of control. On to “CTCAAATCAATTCTCATTTC (sugars l4 d13 l3, PS)”, for which the calcium oscillation score was 62 % of control. Turning to “TTACCATCCTATCTTCTA (sugars l2 d13 l3, PS)”, the calcium oscillation score was 90.3 % of control. “GCAGGTTAAGTGATTAACCA (sugars l3 d14 l3, PS)”: the calcium oscillation score was 36.3 % of control.

On to “TTAACTCATCAACACCTT (sugars l3 d11 l4, PS)”, for which the calcium oscillation score is 114 % of control. With “TATTTCCAAATTCACTTTTA (sugars llddlldddddddddlldll, PS)”, the calcium oscillation score was 123 % of control.

Turning to TTAGCCCTAAAGTCCC (sugars l3 d10 l3, PS), the calcium oscillation score is 28.6 % of control.

The values are drawn from the OligoGym collection.
